PubChem BioAssay (NCI)
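Grown in 96-well plates, cells were treated for 48 hours with each compound at five concentrations. Insufficient inhibition: endpoint recorded as highest concentration tested. GI50 marks 50% less growth. TGI is the concentration that stops growth completely.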

How the values were obtained:
Experiment in all cases: NCI tumour cell line growth inhibition, 48 h
HCT-116 colon = tested on: HCT-116 colon
HL-60(TB) leukemia = tested on: HL-60(TB) leukemia
IGROV1 ovarian = tested on: IGROV1 ovarian
M14 melanoma = tested on: M14 melanoma
NCI-H23 lung = tested on: NCI-H23 lung
NCI-H522 lung = tested on: NCI-H522 lung
RXF 393 renal = tested on: RXF 393 renal
SF-539 CNS = tested on: SF-539 CNS
SK-MEL-28 melanoma = tested on: SK-MEL-28 melanoma
UACC-62 melanoma = tested on: UACC-62 melanoma

Row | SMILES | GI50 (HCT-116 colon) [µM] | TGI (HCT-116 colon) [µM] | GI50 (HL-60(TB) leukemia) [µM] | TGI (HL-60(TB) leukemia) [µM] | GI50 (IGROV1 ovarian) [µM] | TGI (IGROV1 ovarian) [µM] | GI50 (M14 melanoma) [µM] | TGI (M14 melanoma) [µM] | GI50 (NCI-H23 lung) [µM] | TGI (NCI-H23 lung) [µM] | GI50 (NCI-H522 lung) [µM] | TGI (NCI-H522 lung) [µM] | GI50 (RXF 393 renal) [µM] | TGI (RXF 393 renal) [µM] | GI50 (SF-539 CNS) [µM] | TGI (SF-539 CNS) [µM] | GI50 (SK-MEL-28 melanoma) [µM] | TGI (SK-MEL-28 melanoma) [µM] | GI50 (UACC-62 melanoma) [µM] | TGI (UACC-62 melanoma) [µM]
1 | COc1ccc(/C=C/C(C)=N/OCC(=O)Nc2ccc(Cl)cc2)cc1 | 1.99 | 9.39 | 2.55 | 10.5 | 3.42 | 51.6 | 3.01 | 14.1 | 2.54 | 10.2 | 1.81 | 8.01 | 4.09 | 21.4 | 3.16 | 13.4 | 3.17 | 31.6 | 1.21 | 6.46
2 | O=C(N/N=C/c1ccc(F)cc1)c1ccc(C(F)(F)F)nc1Nc1cccc(C(F)(F)F)c1 | 0.65 | 2.79 | 0.827 | 3.72 | 1.68 | 4.84 | 0.916 | 10.1 | 2.58 | 11.9 | 1.61 | 4.54 | 0.457 | 2.72 | 1.82 | 4.87 | 1.79 | 7.92 | 1.66 | 5.77
3 | CCCCCCCCCCCCOC1C(C(CC(=O)N2CCN(Cc3ccc4c(c3)OCO4)CC2)NS(=O)(=O)c2cc(Cl)cc(Cl)c2)OC2OC(C)(C)OC21 (stereo not given) | 6.69 | 36.7 | 10.8 | 78.3 | 14 | > 100 | 61.1 | > 100 | 17.4 | > 100 | 26.9 | > 100 | 6.43 | 28.1 | 43 | > 100 | > 100 | > 100 | > 63.3 | > 100
4 | Nc1nc(=S)[nH]c(C(=O)Nc2nccs2)c1-c1ccccc1 | – | > 100 | – | > 100 | – | > 100 | – | > 100 | – | > 100 | – | > 100 | – | > 100 | – | > 100 | – | > 100 | – | > 100
5 | Fc1ccc(-c2nn3c(COc4ccc(Cl)cc4)nnc3s2)cc1Oc1ccccc1 | 20.6 | > 52.3 | > 100 | > 100 | 22.2 | > 54.1 | > 49.5 | > 79.3 | 20.4 | 40.2 | 26.1 | > 66.8 | 26.3 | 87.5 | 22.5 | > 55.5 | 37 | > 100 | 32.4 | > 63.4
6 | COC(=O)[C@H](Cc1cn(C)cn1)NC(=O)[C@@H](NC(=O)Nc1cc(C(F)(F)F)cc(C(F)(F)F)c1)C(C)C | 1.82 | 3.55 | > 10 | > 10 | 6.15 | > 10 | 8.62 | > 10 | 4.6 | > 10 | 1.71 | 3.66 | 1.96 | 4.08 | > 10 | > 10 | 2.05 | 4.99 | 8.58 | > 10
7 | COc1ccc(Cc2nc3cc(OC)c(OC)cc3c(=O)[nH]2)cc1 | 4.78 | > 100 | 1.78 | 4.8 | 4.61 | > 67.2 | 4.13 | > 41.2 | 4.03 | 33.1 | 14.5 | > 100 | 3.95 | 24.3 | 7.97 | 39.7 | 11.5 | 65.1 | 8.74 | 34.5
8 | Nc1ccc(C(=O)/C=C/c2ccccc2O)cc1 | – | > 100 | – | > 100 | – | > 100 | – | > 100 | – | > 100 | – | > 100 | – | > 100 | – | > 100 | – | > 100 | – | > 100
9 | CCSc1ncc(Br)c(Sc2nc(N)nc3nc[nH]c23)n1 | 2.86 | > 100 | 19.8 | 88.6 | 2.7 | 30 | 1.79 | 8.68 | 2.69 | > 100 | 3.18 | 64.9 | 5.37 | > 100 | 3.52 | 31.5 | 46.9 | > 100 | 2.37 | 20.4
10 | N#CCCN(CCC#N)c1ccc(C=Nc2ccc(F)cc2)cc1 | – | > 100 | – | > 100 | – | > 100 | – | > 100 | – | > 100 | – | > 100 | – | > 100 | – | > 83.2 | – | > 100 | – | > 54.2
11 | OCC#Cc1ccccc1C#Cc1ccc(C#Cc2ccccc2)cc1 | 16.6 | 32.3 | 0.489 | > 100 | 28.4 | > 100 | 17.5 | 43.9 | 18.2 | 37 | 55.2 | > 100 | 26.2 | 54.3 | 21.4 | 45.6 | 38.3 | > 100 | 19.9 | 36.1
12 | CC1=C2[C@@H](CC1)[C@]1(C)O[C@@](C3CC3)(C[C@H]1OC(=O)CO)[C@H]2OC(=O)/C=C/c1ccccc1 | 16 | 30.9 | 15.6 | 42.6 | 19.7 | 42.7 | 16.4 | 32.3 | 16.6 | 36 | 15.9 | 32.4 | 0.0218 | 0.858 | 16.6 | 31.6 | 18.6 | 36.3 | 14.3 | 29.4
13 | COc1cc(OC)cc(-c2ccc(-c3ccc(C(=N)N)cn3)s2)c1 | 1.9 | 3.64 | 2.06 | 4.48 | 1.9 | 3.73 | 1.79 | 3.47 | 1.78 | 3.5 | 2.27 | 5.59 | 1.83 | 3.34 | 1.71 | 3.13 | 1.84 | 3.43 | 1.85 | 3.54
